Columns and labels:
Type in all cases: in vivo
[1] = tested on: FUS[1-359]-tg mouse line (FUS-tg); experiment: Onset of paralysis in FUS-tg mouse ALS model; conditions: for percentage of FUS-tg mice with signs of paralysis on day 95: FUS-tg male mice, six weeks via drinking water from age nine weeks, (I) and (IX) 50 mg/kg/day, Riluzole 8 mg/kg
Description: (§1) A transgenic FUS[1-359]-tg mouse line (FUS-tg) was used to test the efficacy of the substance of formula (I) in the therapy of amyotrophic lateral sclerosis according to the guidelines set for ALS preclinical studies. Ludolph A C et al. Guidelines for preclinical animal research in ALS/MND: A consensus meeting. Amyotroph Lateral Scler. 2010; 11:38-45. Mutations in DNA/RNA-binding factor (fused-in-sarcoma) FUS cause ALS in humans. The FUS-tg mouse model recapitulates core hallmarks of human ALS in the spinal cord, including neuroinflammation and neurodegeneration, ensuing muscle atrophy and paralysis. […] J Biol Chem. 2013; 288:25266-25274. Lutz C. Mouse models of ALS: Past, present and future. […] CNS Neurosci Ther. 2020; 26(5):504-517.
(§2) The substance (I) and the substance (IX) represent (2S)- and (2R)-enantiomers of 2-aminopentanethioic S-acid, respectively. The (2R)-enantiomer (IX) was included to the study to clarify importance of (S)- and (R)-configurations of 2-aminopentanethioic S-acid during the therapy of ALS.
The onset of paralysis, a core ALS symptom, was recorded for each FUS-tg mouse.

[2] = tested on: FUS[1-359]-tg mouse line (FUS-tg); experiment: Rotarod test in FUS-tg mouse ALS model; conditions: week 5, via drinking water, one-way ANOVA and Tukey's test
Description: as §1, §2

[3] = tested on: FUS[1-359]-tg mouse line (FUS-tg); experiment: Malondialdehyde (MDA) concentration in spinal cord of FUS-tg mice; conditions: 50 mg/kg/day via drinking water, one-way ANOVA and Tukey's test
Description: A transgenic FUS[1-359]-tg mouse line (FUS-tg) was used to test the efficacy of the substance of formula (I) in the therapy of amyotrophic lateral sclerosis according to the guidelines set for ALS preclinical studies. Ludolph A C et al. Guidelines for preclinical animal research in ALS/MND: A consensus meeting. Amyotroph Lateral Scler. 2010; 11:38-45. Mutations in DNA/RNA-binding factor (fused-in-sarcoma) FUS cause ALS in humans. The FUS-tg mouse model recapitulates core hallmarks of human ALS in the spinal cord, including neuroinflammation and neurodegeneration, ensuing muscle atrophy and paralysis. Shelkovnikova T A et al. Fused in sarcoma (FUS) protein lacking nuclear localization signal (NLS) and major RNA binding motifs triggers proteinopathy and severe motor phenotype in transgenic mice. J Biol Chem. 2013; 288:25266-25274. Lutz C. Mouse models of ALS: Past, present and future. Brain Res. 2018; 1693:1-10. de Munter J et al. Neuro-Cells therapy improves motor outcomes and suppresses inflammation during experimental syndrome of amyotrophic lateral sclerosis in mice. CNS Neurosci Ther. 2020; 26(5):504-517. […]
The concentration of malondialdehyde (MDA), a marker of oxidative stress, was measured in the spinal cord of FUS-tg mice treated with vehicle or substance of formula (I) in comparison with wild type controls. […]

SMILES | percentage of FUS-tg mice with signs of paralysis on day 95 [1] | significance of percentage of mice with signs of paralysis on the 95th day vs. vehicle ([1]; FUS-tg mice, day 95, Fisher test vs. vehicle) | latency to fall in the rotarod test vs. vehicle-treated FUS-tg mice [2] | MDA levels in the spinal cord vs. vehicle-treated FUS-tg mice [3]
CCC[C@H](N)C(=O)S [substance (I), (2S)-2-aminopentanethioic S-acid] | 16% | significantly lower | significantly longer latency to fall | significant reduction of the MDA levels
CCC[C@@H](N)C(=O)S [substance (IX), (2R)-2-aminopentanethioic S-acid, reference compound] | 43% |  | no significant difference | 

Reference: patent US12533330B2, “(2S)-2-aminopentanethioic s-acid for use as medicament and in therapy of amyotrophic lateral sclerosis” (MASSEY VENTURES LIMITED, priority 2020, dated 2026)
